EPA's ToxRefDB 2

Assays:
dog [1] = conditions: Chronic toxicity, beagle, Oral, Feed, dose end: 12 month, group: systemic
rat [2] = conditions: Prenatal developmental toxicity study, wistar, Oral, Gavage/Intubation, dose end: 16 GD
rabbit [3] = conditions: Prenatal developmental toxicity study, dutch, Oral, Gavage/Intubation, dose end: 18 GD
dog [4] = conditions: Chronic toxicity, beagle, Oral, Capsule, dose end: 12 month, group: systemic
rat [5] = conditions: Multigenerational reproductive toxicity study, sprague dawley, Oral, Feed, dose end: 2 generation
rat [6] = conditions: Combined chronic toxicity/carcinogenicity; wistar; Oral; Feed; dose end: 28 month; group: systemic; systemic / in life observation / body weight / body weight + systemic / in life observation / body weight / body weight gain
rat [7] = conditions: Subchronic oral toxicity in rodents, wistar, Feed, dose end: 3 month, group: systemic
rat [8] = conditions: Developmental neurotoxicity study; other; Oral; Gavage/Intubation; dose end: 112 PND; group: cannot be grouped; systemic / in life observation / body weight / offspring (pup) weight gain
rat [9] = conditions: Subchronic oral toxicity in rodents, fischer, Gavage/Intubation, dose end: 13 week, group: systemic
mouse [10] = conditions: Carcinogenicity, b6c3f1, Oral, Gavage/Intubation, dose end: 103 week, group: systemic
rat [11] = conditions: Sub-acute repeat dose toxicity, fischer, Oral, Gavage/Intubation, dose end: 16 day, group: systemic
mouse [12] = conditions: Subchronic oral toxicity in rodents, b6c3f1, Gavage/Intubation, dose end: 13 week, group: systemic
rat [13] = conditions: Carcinogenicity; fischer; Oral; Gavage/Intubation; dose end: 103 week; group: systemic; systemic / pathology microscopic / spleen / fibrosis + systemic / pathology microscopic / stomach / dysplasia + systemic / pathology …
mouse [14] = conditions: Sub-acute repeat dose toxicity, b6c3f1, Oral, Gavage/Intubation, dose end: 16 day, group: systemic
mouse [15] = conditions: Prenatal developmental toxicity study; cd1; Oral; Gavage/Intubation; dose end: 15 GD; group: maternal; systemic / in life observation / clinical signs / ataxia + systemic / in life observation / mortality / mortality
rat [16] = conditions: Combined chronic toxicity/carcinogenicity, sprague dawley, Oral, Feed, dose end: 105 week, group: systemic
rat [17] = conditions: Combined chronic toxicity/carcinogenicity, sprague dawley, Oral, Feed, dose end: 104 week, group: systemic
mouse [18] = conditions: Carcinogenicity, cd1, Oral, [Not Specified], dose end: 18 month, group: systemic
rabbit [19] = conditions: Prenatal developmental toxicity study, new zealand white, Oral, Gavage/Intubation, dose end: 18 GD
rat [20] = conditions: Subchronic oral toxicity in rodents, sprague dawley, Gavage/Intubation, dose end: 12 week, group: systemic, systemic / clinical chemistry / albumin / albumin + systemic / clinical chemistry / alkaline phosphatase (alp/alk) / alkaline phosphatase (…
[21] = group: developmental, developmental / developmental malformation / bone / bent + developmental / developmental malformation / bone / incomplete ossification + …
[22] = group: maternal, reproductive / reproductive performance / resorptions / resorptions + systemic / in life observation / body weight / body weight gain + …
[23] = group: developmental, developmental / developmental malformation / bone / incomplete ossification + developmental / developmental malformation / bone / misshapen…
[24] = group: maternal, reproductive / reproductive performance / aborted / aborted + systemic / in life observation / food consumption / food consumption + …
[25] = systemic / clinical chemistry / gamma glutamyl transferase (ggt) / gamma glutamyl transferase (ggt)
[26] = systemic / in life observation / body weight / body weight + systemic / in life observation / body weight / body weight gain + systemic / in…
[27] = group: offspring, systemic / in life observation / clinical signs / reduced body size
[28] = group: offspring, systemic / in life observation / clinical signs / reduced body size + systemic / in life observation / body weight / offspring (pup) weight
[29] = group: parental, systemic / in life observation / body weight / body weight + systemic / in life observation / body weight / body weight gain + systemic / in…
[30] = group: parental, systemic / in life observation / body weight / body weight + systemic / in life observation / food consumption / food consumption
[31] = systemic / hematology / hemoglobin (hgb) / hemoglobin (hgb) + systemic / in life observation / body weight / body weight gain + systemic / …
[32] = systemic / urinalysis / appearance and color / appearance and color
[33] = systemic / pathology gross / sperm measure / sperm count + systemic / pathology gross / sperm measure / sperm motility
[34] = systemic / in life observation / body weight / body weight + systemic / pathology microscopic / harderian gland / adenoma + systemic / …
[35] = systemic / in life observation / body weight / body weight
[36] = systemic / in life observation / body weight / body weight + systemic / in life observation / mortality / mortality + systemic / pathology …
[37] = systemic / in life observation / body weight / body weight + systemic / pathology gross / sperm measure / sperm count + systemic / pathology…
[38] = systemic / pathology gross / sperm measure / sperm count + systemic / pathology gross / sperm measure / sperm motility + systemic / …
[39] = systemic / in life observation / body weight / body weight + systemic / in life observation / clinical signs / defecation (diarrhea) + …
[40] = systemic / clinical chemistry / aspartate aminotransferase (ast/sgot) / aspartate aminotransferase (ast/sgot)
[41] = systemic / in life observation / mortality / mortality + systemic / pathology gross / mammary gland / cyst + systemic / pathology gross / …
[42] = systemic / in life observation / clinical signs / fur (altered appearance) + systemic / in life observation / clinical signs / urine …
[43] = systemic / in life observation / food consumption / food consumption + systemic / in life observation / body weight / body weight
[44] = group: developmental, developmental / developmental malformation / bone / supernumerary
[45] = group: developmental, developmental / developmental malformation / bone / supernumerary + developmental / developmental malformation / heart / [other] + …
[46] = group: maternal, systemic / in life observation / body weight / body weight gain + systemic / in life observation / food consumption / food consumption

CCCN(CCC)c1c([N+](=O)[O-])cc(C(F)(F)F)cc1[N+](=O)[O-] [Trifluralin]
NEL (dog [1]; systemic / hematology / methemoglobin / methemoglobin + systemic / clinical chemistry / cholesterol / cholesterol + systemic / clinical …): 0.8 mg/kg/day
LOAEL (dog [1]; systemic / organ weight / liver / absolute): 3.8 mg/kg/day
NOAEL (dog [1]; systemic / organ weight / liver / absolute + systemic / clinical chemistry / cholesterol / cholesterol + systemic / clinical chemistry / …): 0.8 mg/kg/day
LEL (dog [1]; systemic / organ weight / liver / absolute + systemic / hematology / methemoglobin / methemoglobin): 3.8 mg/kg/day
LEL (rat [2]; [21]): 500 mg/kg/day
LOAEL (rat [2]; [21]): 500 mg/kg/day
NEL (rat [2]; [21]): 100 mg/kg/day
NOAEL (rat [2]; [21]): 100 mg/kg/day
LEL (rat [2]; [22]): 500 mg/kg/day
LOAEL (rat [2]; [22]): 500 mg/kg/day
NEL (rat [2]; [22]): 100 mg/kg/day
NOAEL (rat [2]; [22]): 100 mg/kg/day
LEL (rabbit [3]; [23]): 500 mg/kg/day
LOAEL (rabbit [3]; [23]): 500 mg/kg/day
NEL (rabbit [3]; [23]): 225 mg/kg/day
NOAEL (rabbit [3]; [23]): 225 mg/kg/day
LEL (rabbit [3]; [24]): 225 mg/kg/day
LOAEL (rabbit [3]; [24]): 225 mg/kg/day
NEL (rabbit [3]; [24]): 100 mg/kg/day
NOAEL (rabbit [3]; [24]): 100 mg/kg/day
LEL (dog [4]; [25]): 0.75 mg/kg/day
NEL (dog [4]; [25]): < 0.75 mg/kg/day
NOAEL (dog [4]; systemic / clinical chemistry / gamma glutamyl transferase (ggt) / gamma glutamyl transferase (ggt) + systemic / in life observation / body …): 2.4 mg/kg/day
LOAEL (dog [4]; [26]): 40 mg/kg/day
LEL (rat [5]; [27]): 47 mg/kg/day
LOAEL (rat [5]; [27]): 47 mg/kg/day
NEL (rat [5]; [28]): 15 mg/kg/day
NOAEL (rat [5]; [28]): 15 mg/kg/day
NEL (rat [5]; [29]): 15 mg/kg/day
NOAEL (rat [5]; [29]): 15 mg/kg/day
LEL (rat [5]; [30]): 47 mg/kg/day
LOAEL (rat [5]; [30]): 47 mg/kg/day
LEL (rat [6]): 169 mg/kg/day
LOAEL (rat [6]): 169 mg/kg/day
NEL (rat [6]): 40 mg/kg/day
NOAEL (rat [6]): 40 mg/kg/day
LOAEL (rat [7]; [31]): 392 mg/kg/day
NOAEL (rat [7]; [31]): 154 mg/kg/day
LEL (rat [7]; [32]): 59 mg/kg/day
NEL (rat [7]; [32]): < 59 mg/kg/day

CN(C)CCCN1c2ccccc2Sc2ccc(Cl)cc21 [Chlorpromazine]
LEL (rat [8]): 3 mg/kg/day
LOAEL (rat [8]): > 9 mg/kg/day
NEL (rat [8]): 1 mg/kg/day
NOAEL (rat [8]): ≥ 9 mg/kg/day

OCC1CO1 (stereo unspecified) [Glycidol]
NOAEL (rat [9]; systemic / in life observation / body weight / body weight + systemic / pathology microscopic / brain / necrosis + systemic / in life …): 100 mg/kg/day
LOAEL (rat [9]; systemic / in life observation / body weight / body weight + systemic / pathology microscopic / brain / necrosis + systemic / pathology …): 200 mg/kg/day
LEL (rat [9]; [33]): 25 mg/kg/day
NEL (rat [9]; [33]): < 25 mg/kg/day
LEL (mouse [10]; [34]): 25 mg/kg/day
NEL (mouse [10]; [34]): < 25 mg/kg/day
NOAEL (mouse [10]; [34]): 25 mg/kg/day
LOAEL (mouse [10]; systemic / in life observation / body weight / body weight + systemic / pathology microscopic / stomach / hyperplasia): 50 mg/kg/day
LEL (rat [11]; [35]): 150 mg/kg/day
LOAEL (rat [11]; [35]): 150 mg/kg/day
NEL (rat [11]; [36]): 75 mg/kg/day
NOAEL (rat [11]; [36]): 75 mg/kg/day
LEL (mouse [12]; [37]): 19 mg/kg/day
NEL (mouse [12]; [37]): < 19 mg/kg/day
LOAEL (mouse [12]; [38]): 75 mg/kg/day
NOAEL (mouse [12]; [38]): 38 mg/kg/day
LEL (rat [13]): 37.5 mg/kg/day
LOAEL (rat [13]): 37.5 mg/kg/day
NEL (rat [13]): < 37.5 mg/kg/day
NOAEL (rat [13]): < 37.5 mg/kg/day
LEL (mouse [14]; systemic / in life observation / body weight / body weight + systemic / in life observation / clinical signs / defecation (diarrhea)): 150 mg/kg/day
LOAEL (mouse [14]; [39]): > 600 mg/kg/day
NEL (mouse [14]; [39]): 75 mg/kg/day
NOAEL (mouse [14]; [39]): ≥ 600 mg/kg/day
LEL (mouse [15]): 200 mg/kg/day
LOAEL (mouse [15]): > 200 mg/kg/day
NEL (mouse [15]): 150 mg/kg/day
NOAEL (mouse [15]): ≥ 200 mg/kg/day

CC1(C)C(=O)N(Cl)C(=O)N1Cl [1,3-Dichloro-5,5-dimethylhydantoin]
LEL (rat [16]; [40]): 100 mg/kg/day
NEL (rat [16]; [40]): < 100 mg/kg/day
LOAEL (rat [16]; [41]): 1000 mg/kg/day
NOAEL (rat [16]; [41]): 320 mg/kg/day
NOAEL (rat [17]; [26]): 300 mg/kg/day
LOAEL (rat [17]; systemic / in life observation / body weight / body weight + systemic / in life observation / body weight / body weight gain + systemic / …): 1000 mg/kg/day
LEL (rat [17]; [42]): 100 mg/kg/day
NEL (rat [17]; [42]): < 100 mg/kg/day
LEL (mouse [18]; [35]): 320 mg/kg/day
NEL (mouse [18]; systemic / in life observation / body weight / body weight + systemic / in life observation / food consumption / food consumption): 100 mg/kg/day
LOAEL (mouse [18]; [43]): > 1000 mg/kg/day
NOAEL (mouse [18]; [43]): ≥ 1000 mg/kg/day
LEL (rabbit [19]; [44]): 500 mg/kg/day
LOAEL (rabbit [19]; [44]): 500 mg/kg/day
NEL (rabbit [19]; [45]): 100 mg/kg/day
NOAEL (rabbit [19]; [45]): 100 mg/kg/day
LEL (rabbit [19]; [46]): 1000 mg/kg/day
LOAEL (rabbit [19]; [46]): 1000 mg/kg/day
NEL (rabbit [19]; [46]): 500 mg/kg/day
NOAEL (rabbit [19]; [46]): 500 mg/kg/day

CC1=C(/C=C/C(C)=C/C=C/C(C)=C\C(=O)O)C(C)(C)CCC1 [13-cis Retinoic acid]
LEL (rat [20]): 4 mg/kg/day
LOAEL (rat [20]): > 40 mg/kg/day
NEL (rat [20]): < 4 mg/kg/day
NOAEL (rat [20]): ≥ 40 mg/kg/day
